Assay results as given in patent publication US10428151B2, “Treatment of hematologic malignancies with an anti-CXCR4 antibody” (BRISTOL-MYERS SQUIBB COMPANY, priority 2011, dated 2019).

Legend:
[1] = system: human peripheral blood mononuclear cells (PBMCs); assay: Flow cytometry binding to human PBMC subsets; conditions: 33 μg/ml; CD3+, CD20+, CD11b+, CD14+ subsets; vs isotype-matched control
Source text: Human PBMCs were isolated by standard methods and different cellular subsets were isolated by FACS. In particular, the following cellular subsets were isolated: (i) CD3^+, (ii) CD20^+; (iii) CD11b^+ and (iv) CD14^+.

CCRF-CEM = CCRF-CEM tumor growth inhibition (monotherapy); assay type: in vivo
[2] = system: DMS79 human small cell lung carcinoma cells; assay: DMS79 small cell lung carcinoma xenograft; assay type: in vivo, mouse; conditions: Day 34 post-implantation; 10 mg/kg IP Q3D×5
Procedure: In a second experiment, 5×10^6 DMS79 human small cell lung carcinoma cells/mouse were implanted into the flank region of each mouse and allowed to grow to a mean size of 160 mm^3, calculated by length×width×height/2 of the tumors, which was day 7 post-implantation. The mice were randomized into different treatment groups and received intraperitoneal (IP) injections of antibody on a dosing schedule of Q3D×5 (every three days for five times). […] Tumor volumes were measured at regular intervals and the mean and median tumor volume determined for each treatment group at each interval.

Ramos cells [3] = assay: Ramos systemic tumor cell model, survival; assay type: in vivo, mouse; conditions: second experiment
Procedure: In this example, the ability of an anti-CXCR4 human antibody to increase survival time of mice was examined using a Ramos systemic tumor cell model. In this assay, 1×10^6 Ramos cells/mouse were injected intravenously (IV) into each mouse on Day 0. The mice then received an intraperitoneal (IP) injection of a first dose of antibody on Day 1 (i.e., one day after IV administration of tumor cells) and received four more IP doses of antibody, on days 5, 8, 15 and 22 (mice treated with the positive control antibody were treated only on day 1). […] Dose response studies had previously found 15 mg/kg to be an effective dose of anti-CD19 (data not shown). Percent survival was measured at regular intervals between Day 0 and Day 50 post dosing (hind leg paralysis was used as the endpoint of the experiment). […] The median numbers of days of survival for the mice treated with either vehicle or the isotype control were 23 and 25.5 days, respectively, whereas the median number of days of survival of the mice treated with one dose of the anti-CD19 positive control was 39 days.
The median number of days of survival for the mice treated with the vehicle or the isotype controls were 23-24 days, whereas the median number of days of survival of the mice treated with one dose of the anti-CD19 positive control was 39 days.

[4] = system: HPAC human pancreatic adenocarcinoma cells; assay: HPAC subcutaneous xenograft; assay type: in vivo, mouse
Procedure: (§1) Additional subcutaneous xenograft tumor models were tested for the ability of anti-CXCR4 antibodies to inhibit tumor growth, in experiments similar to those described above and in Example 9. […] Although the tumor cells in vivo were stainable by the mAb by immunohistochemistry, it is unclear at what stage of their tumor growth CXCR4 began to be expressed.

CLL cells = conditions: Kashyap et al., 2012; cited from earlier work
Ramos cells [5] = assay: Ramos subcutaneous tumor cell model; assay type: in vivo, mouse; conditions: IP day 0 and 7; 15 mg/kg (Fab′ 10 mg/kg, also day 3 and 10)
Source text: In this example, the ability of the anti-CXCR4 human antibodies to inhibit proliferation of an established solid tumor in vivo was examined using a Ramos subcutaneous tumor cell model. In this assay, 10×10^6 Ramos cells/mouse were implanted into the flank region of each mouse and allowed to grow to a mean size of 40 mm^3, calculated by length×width×height/2 of the tumors. The mice then received an intraperitoneal (IP) injection of a first dose of antibody (designated as day 0 of treatment) and received a second IP dose of antibody on day 7. Mice treated with a Fab′ fragment antibody also received IP antibody doses on day 3 and day 10. […] Tumor volume and mouse body weight were measured at regular intervals (approximately 2-3 times/week) between day 0 and day 30 post dosing. The results of the experiment are presented in FIGS. 12A, 12B and 12C, which show mean tumor volume (FIG. 12A), median tumor volume (FIG. 12B) and median % body weight change (FIG. 12C). […] All treatments were well-tolerated as indicated by no significant body weight change. The differences in body weights between treatments were most likely due to the weights of the tumors.

B16-CXCR4 cells = assay: B16-CXCR4 lung metastases, C57 mouse systemic tumor model; assay type: in vivo; conditions: day 14, 5 mg/kg IP
Procedure: In this example, the ability of the F7 anti-CXCR4 mAb to inhibit lung metastases was examined using a C57 mouse systemic tumor model. More specifically, 0.4×10^6 B16-CXCR4 cells (B16 cells transfected to express human CXCR4) were injected intravenously into each of 30 mice of the C57 strain. The mice were randomized into three groups of ten mice each, which were then treated with either (i) vehicle (PBS); (ii) IgG4 isotype control (5 mg/kg); or (iii) F7 IgG4 (5 mg/kg). The antibody or vehicle was injected intraperitoneally 30 minutes after the B16-CXCR4 cells were injected intravenously. Lungs were harvested on day 14 and the number of lung metastasis nodules was quantitated.

Nomo-1 = Nomo-1 AML xenograft; assay type: in vivo, SCID mice
Source text: In the Nomo-1 model (7.5 million cells implanted subcutaneously as in Example 14).

[6] = system: Namalwa Burkitt's lymphoma cells; assay: Namalwa subcutaneous xenograft; assay type: in vivo, mouse
Procedure: as §1

[7] = system: Bortezomib-resistant JJN-3R cells; assay: JJN-3R MM xenograft in SCID mice; assay type: in vivo
KG-1 = KG-1 tumor growth inhibition (monotherapy); assay type: in vivo
Ramos tumor cells = assay: Ramos cell proliferation, 3H-thymidine incorporation; assay type: cell-based, human; conditions: 10^−3 to 300 nM; 72 hours
Procedure: In this example, the ability of the anti-CXCR4 human antibodies to inhibit proliferation of Ramos tumor cells (a human Burkitt's lymphoma cell line) in vitro was examined. […] The cells were incubated with antibody for 72 hours, with ^3H-thymidine being added for the final 24 hours of incubation to allow for monitoring of cell proliferation. Following the incubation, incorporation of ^3H-thymidine by the cells was measured by standard techniques. The results are shown in the graph of FIG. 11A.

BMS-936564: fully human anti-CXCR4 monoclonal antibody; VH SEQ ID NO: 25, VL SEQ ID NO: 29
binding to PBMC subsets [1]: capable of binding effectively to each of the four subsets | % Tumor Growth Inhibition (Monotherapy) (CCRF-CEM): 72% | Mean tumor volume [2]: 620 mm^3 | Median tumor volume [2]: 599 mm^3 | TGI (%) (mean) [2]: 38% | efficacy in prolonging mouse survival (Ramos cells [3]; 15 mg/kg): highly efficacious in prolonging mouse survival | percent of mice survived at end of experiment (Ramos cells [3]; five doses 15 mg/kg, 120 days after implantation): 100% | tumor growth inhibition [4]: no tumor growth inhibition | inhibition of CXCL12-mediated F-actin polymerization in CLL cells (CLL cells): at lower concentrations than with AMD-3100 | tumor cell growth (tumor volume) (Ramos cells [5]): significantly inhibited tumor cell growth | Number of Lung Metastases Mean (B16-CXCR4 cells): 157 | Number of Lung Metastases Median (B16-CXCR4 cells): 186 | % Inhibition of Lung Mets (Mean) (B16-CXCR4 cells; listed as F7 Anti-CXCR4 IgG4, 5 mg/kg): 56% | % Inhibition of Lung Mets (Mean) (B16-CXCR4 cells; listed as F7 mAb, 5 mg/kg): 56% | % Tumor Growth Inhibition (Monotherapy) (Nomo-1; Nomo-1): 88% | median tumor growth inhibition (Nomo-1; day 34, 10 mg/kg/dose, compared to isotype or vehicle control): 88% | % Tumor Growth Inhibition (Monotherapy) [6]: 66% | tumor growth inhibition ([6]; 3 mg/kg): approximately 70% | mice tumor-free at the end of study ([7]; 30-mg/kg group): 4 out of 7 | % Tumor Growth Inhibition (Monotherapy) ([7]; JJN3R): 97% | tumor growth inhibition ([7]; JJN-3R): MDX-1338 = 100% | median tumor growth inhibition ([7]; day 25, 10 or 30 mg/kg/dose IP, compared to isotype control): 100% | % Tumor Growth Inhibition (Monotherapy) (KG-1): 23% | inhibition of Ramos cell proliferation (3H-thymidine incorporation) (Ramos tumor cells): able to inhibit Ramos cell proliferation
